In patent US5977133A, “Pyridone antibiotic with improved safety profile” (priority 1998, dated 1999):
Where a name gives a salt, the structure may show the parent alone. Read-outs that look alike come from different tables or passages of the source.

Legend:
Format in all cases: cell-based
Enterococcus spp. (VanR) = experiment: In vitro MIC, agar dilution; details: Enterococcus spp. (VanR), 21 isolates
S. epidermidis (CiproR) = experiment: In vitro MIC, agar dilution; details: Staphylococcus epidermidis
N. gonorrhoeae = experiment: In vitro MIC, agar dilution; details: Neisseria gonorrhoeae
Klebsiella spp. = experiment: In vitro MIC, agar dilution
P. aeruginosa (CiproS) = experiment: In vitro MIC, agar dilution; details: Pseudomonas aeruginosa, P. aeruginosa (CiproS), 24 isolates
H. influenzae = experiment: In vitro MIC, agar dilution; details: Haemophilus influenzae, H. influenzae, 18 isolates
C. perfringens = experiment: microbe, parasite or virus in culture; details: Clostridium perfringens
P. mirabilis = experiment: In vitro MIC, agar dilution; details: Proteus mirabilis
Shigella spp. = experiment: microbe, parasite or virus in culture; details: read-out: MIC Range
P. aeruginosa (CiproR) = experiment: In vitro MIC, agar dilution
M. avium = experiment: In vitro MIC, agar dilution; details: Mycobacterium avium
Providencia spp. = experiment: In vitro MIC, agar dilution
Legionella spp. = experiment: microbe, parasite or virus in culture; details: Legionella
S. epidermidis (CiproS) = experiment: In vitro MIC, agar dilution; details: Staphylococcus epidermidis
E. faecalis (VanS) = experiment: In vitro MIC, agar dilution; details: Enterococcus faecalis
S. pneumoniae (PenR) = experiment: In vitro MIC, agar dilution; details: Streptococcus pneumoniae
E. coli = experiment: In vitro MIC, agar dilution; details: Escherichia coli, 25 isolates
Procedure, shortened: (§1)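 MIC, the lowest compound level without growth versus a drug-free BHI control plate, with faint haze or scattered colonies scored as no growth. About 10^4 CFU was replicator-spotted from 1:100 dilutions, or 1:10 for slow-growing strains, and plates were read after ~20–24 h at 35–37 °C.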

Salmonella spp. = experiment: In vitro MIC, agar dilution; details: 23 isolates
Procedure, shortened: as §1

S. aureus (CiproS) = experiment: In vitro MIC, agar dilution; details: Staphylococcus aureus
E. faecium (CiproR) = experiment: In vitro MIC, agar dilution; details: Enterococcus faecium; E. faecium (CiproR), 2 isolates; read-out: MIC Range
B. fragilis = experiment: In vitro MIC, agar dilution
M. pneumoniae = experiment: In vitro MIC, agar dilution; details: Mycoplasmoides pneumoniae; M. pneumoniae, 7 isolates; read-out: MIC Range
M. catarrhalis = experiment: In vitro MIC, agar dilution; details: Moraxella catarrhalis
S. pyogenes = experiment: In vitro MIC, agar dilution; details: Streptococcus pyogenes
S. aureus (CiproR) = experiment: In vitro MIC, agar dilution; details: Staphylococcus aureus
Enterobacter spp. = experiment: In vitro MIC, agar dilution
E. faecium (CiproS) = experiment: In vitro MIC, agar dilution; details: Enterococcus faecium
E. faecium (VanS) = experiment: In vitro MIC, agar dilution; details: Enterococcus faecium

CN[C@@H]1CN(c2c(F)cn3c(=O)c(C(=O)O)cc(C4CC4)c3c2C)CC12CC2 [Example 1, 1-cyclopropyl-8-(7(S)-N-methylamino-5-azaspiro[2.4]heptyl)-7-fluoro-9-methyl-4-oxo-4H-guinolizine-3-carboxylic acid hydrochloride]
MIC50 (Enterococcus spp. (VanR); read-out: MIC50): 0.5 µg/mL | MIC90 (Enterococcus spp. (VanR); read-out: MIC90): 1 µg/mL | MIC (Enterococcus spp. (VanR); read-out: MIC Range): 0.06 to 4 µg/mL | MIC90 (S. epidermidis (CiproR)): 0.5 µg/mL | MIC (S. epidermidis (CiproR); read-out: MIC Range): 0.12 to 2 µg/mL | MIC50 (S. epidermidis (CiproR); S. epidermidis (CiproR), 11 isolates, read-out: MIC50): 0.25 µg/mL | MIC90 (N. gonorrhoeae): 0.004 µg/mL | MIC50 (N. gonorrhoeae; N. gonorrhoeae, 12 isolates, read-out: MIC50): 0.002 µg/mL | MIC (N. gonorrhoeae; N. gonorrhoeae, 12 isolates, read-out: MIC Range): 0.001 to 0.015 µg/mL | MIC90 (Klebsiella spp.; Klebsiella): 0.03 µg/mL | MIC50 (Klebsiella spp.; Klebsiella spp., 29 isolates, read-out: MIC50): 0.015 µg/mL | MIC (Klebsiella spp.; Klebsiella spp., 29 isolates, read-out: MIC Range): 0.002 to 0.12 µg/mL | MIC50 (P. aeruginosa (CiproS); read-out: MIC50): 0.5 µg/mL | MIC90 (P. aeruginosa (CiproS); read-out: MIC90): 2 µg/mL | MIC (P. aeruginosa (CiproS); read-out: MIC Range): 0.12 to 4 µg/mL | MIC50 (H. influenzae; read-out: MIC50): 0.004 µg/mL | MIC90 (H. influenzae; read-out: MIC90): 0.008 µg/mL | MIC (H. influenzae; read-out: MIC Range): 0.002 to 0.015 µg/mL | MIC50 (C. perfringens): 0.12 µg/mL | MIC90 (C. perfringens): 0.12 µg/mL | MIC90 (C. perfringens; C. perfringens, 13 isolates): 0.25 µg/mL | MIC (C. perfringens; read-out: MIC Range): 0.12 to 0.25 µg/mL | MIC90 (P. mirabilis): 0.12 µg/mL | MIC (P. mirabilis; read-out: MIC Range): 0.03 to 0.25 µg/mL | MIC50 (P. mirabilis; P. mirabilis, 20 isolates, read-out: MIC50): 0.12 µg/mL | MIC (Shigella spp.): 0.002 to 0.15 µg/mL | MIC50 (P. aeruginosa (CiproR); Pseudomonas aeruginosa, P. aeruginosa (CiproR), 20 isolates, read-out: MIC50): 8 µg/mL | MIC90 (P. aeruginosa (CiproR); Pseudomonas aeruginosa, P. aeruginosa (CiproR), 20 isolates, read-out: MIC90): 16 µg/mL | MIC (P. aeruginosa (CiproR); Pseudomonas aeruginosa, P. aeruginosa (CiproR), 20 isolates, read-out: MIC Range): 4 to 32 µg/mL | MIC90 (P. aeruginosa (CiproR); ciprofloxacin resistant P. aeruginosa strains): 16 (g/mL | MIC (M. avium; read-out: MIC Range): 0.25 to 8 µg/mL | MIC50 (M. avium; M. avium, 20 isolates, read-out: MIC50): 1 µg/mL | MIC90 (M. avium; M. avium, 20 isolates, read-out: MIC90): 4 µg/mL | MIC90 (Providencia spp.; Providencia): 0.25 µg/mL | MIC50 (Providencia spp.; Providencia spp., 28 isolates, read-out: MIC50): 0.06 µg/mL | MIC (Providencia spp.; Providencia spp., 28 isolates, read-out: MIC Range): 0.015 to 1 µg/mL | MIC50 (Legionella spp.): 0.12 µg/mL | MIC90 (Legionella spp.): 0.25 µg/mL | MIC (Legionella spp.; read-out: MIC Range): 0.12 to 0.25 µg/mL | MIC90 (S. epidermidis (CiproS)): 0.03 µg/mL | MIC50 (S. epidermidis (CiproS); S. epidermidis (CiproS), 23 isolates, read-out: MIC50): 0.015 µg/mL | MIC (S. epidermidis (CiproS); S. epidermidis (CiproS), 23 isolates, read-out: MIC Range): 0.015 to 0.03 µg/mL | MIC90 (E. faecalis (VanS)): 0.25 µg/mL | MIC (E. faecalis (VanS); read-out: MIC Range): 0.12 to 0.25 µg/mL | MIC50 (E. faecalis (VanS); E. faecalis (VanS), 17 isolates, read-out: MIC50): 0.12 µg/mL | MIC90 (S. pneumoniae (PenR)): 0.06 µg/mL | MIC50 (S. pneumoniae (PenR); S. pneumoniae (PenR), 25 isolates, read-out: MIC50): 0.06 µg/mL | MIC (S. pneumoniae (PenR); S. pneumoniae (PenR), 25 isolates, read-out: MIC Range): 0.03 to 0.06 µg/mL | MIC (E. coli): 0.004 to 0.015 µg/mL | MIC50 (E. coli; read-out: MIC50): 0.015 µg/mL | MIC90 (E. coli; read-out: MIC90): 0.015 µg/mL | MIC (Salmonella spp.): 0.004 to 0.12 µg/mL | MIC50 (Salmonella spp.; read-out: MIC50): 0.03 µg/mL | MIC90 (Salmonella spp.; read-out: MIC90): 0.03 µg/mL | MIC90 (S. aureus (CiproS)): 0.03 µg/mL | MIC50 (S. aureus (CiproS); S. aureus (CiproS), 21 isolates, read-out: MIC50): 0.015 µg/mL | MIC (S. aureus (CiproS); S. aureus (CiproS), 21 isolates, read-out: MIC Range): 0.015 to 0.03 µg/mL | MIC (E. faecium (CiproR)): 0.5 to 4 µg/mL | MIC90 (B. fragilis; B. fragilis, 18 isolates): 0.12 µg/mL | MIC (B. fragilis; Bacteroides fragilis, read-out: MIC Range): 0.06 to 0.12 µg/mL | MIC50 (B. fragilis; Bacteroides fragilis, B. fragilis, 18 isolates, read-out: MIC50): 0.06 µg/mL | MIC90 (B. fragilis; Bacteroides fragilis, B. fragilis, read-out: MIC90): 0.12 µg/mL | MIC (M. pneumoniae): 0.015 to 0.03 µg/mL | MIC90 (M. catarrhalis): 0.03 µg/mL | MIC50 (M. catarrhalis; M. catarrhalis, 18 isolates, read-out: MIC50): 0.015 µg/mL | MIC (M. catarrhalis; M. catarrhalis, 18 isolates, read-out: MIC Range): 0.008 to 0.03 µg/mL | MIC50 (S. pyogenes): 0.03 µg/mL | MIC90 (S. pyogenes): 0.06 µg/mL | MIC (S. pyogenes; S. pyogenes, 21 isolates, read-out: MIC Range): 0.03 to 0.06 µg/mL | MIC90 (S. aureus (CiproR)): 0.5 µg/mL | MIC50 (S. aureus (CiproR); S. aureus (CiproR), 25 isolates, read-out: MIC50): 0.5 µg/mL | MIC (S. aureus (CiproR); S. aureus (CiproR), 25 isolates, read-out: MIC Range): 0.015 to 0.5 µg/mL | MIC90 (Enterobacter spp.; Enterobacter): 0.03 µg/mL | MIC50 (Enterobacter spp.; Enterobacter spp., 35 isolates, read-out: MIC50): 0.015 µg/mL | MIC (Enterobacter spp.; Enterobacter spp., 35 isolates, read-out: MIC Range): 0.008 to 0.12 µg/mL | MIC (E. faecium (CiproS); read-out: MIC Range): 0.25 to 1 µg/mL | MIC50 (E. faecium (CiproS); E. faecium (CiproS), 16 isolates, read-out: MIC50): 0.5 µg/mL | MIC90 (E. faecium (CiproS); E. faecium (CiproS), 16 isolates, read-out: MIC90): 1 µg/mL | MIC (E. faecium (VanS); read-out: MIC Range): 0.12 to 1 µg/mL | MIC50 (E. faecium (VanS); E. faecium (VanS), 11 isolates, read-out: MIC50): 0.5 µg/mL | MIC90 (E. faecium (VanS); E. faecium (VanS), 11 isolates, read-out: MIC90): 1 µg/mL
